From US20020026053A1, “Novel 3-(substituted) -2- indolinones compounds and use thereof as inhibitors of protein kinase activity” (priority 1997, published 2002)

Target: T1, Met receptor (EGFR/Met chimeric cells, EMR) (Homo sapiens, UniProt P08581)
T1 construct: expressed in transfected cells; the other entry of the earlier key: EGFR (P00533, Epidermal growth factor receptor)
Test: Met Autophosphorylation Assay
Assay type: biochemical
Conditions: protocol P.130
Procedure, shortened: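 Transiently transfected EGFR/Met chimeric (EMR) cells were lysed in HNTG with 1 mM PMSF. Met was captured on plates coated with goat anti-rabbit IgG, then rabbit anti-Met (C-28), using 90 μg lysate/100 μl for 60 min at room temperature. Phosphotyrosine was read by ELISA.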

T1 sequence (P08581 with tags, fused parts or gaps): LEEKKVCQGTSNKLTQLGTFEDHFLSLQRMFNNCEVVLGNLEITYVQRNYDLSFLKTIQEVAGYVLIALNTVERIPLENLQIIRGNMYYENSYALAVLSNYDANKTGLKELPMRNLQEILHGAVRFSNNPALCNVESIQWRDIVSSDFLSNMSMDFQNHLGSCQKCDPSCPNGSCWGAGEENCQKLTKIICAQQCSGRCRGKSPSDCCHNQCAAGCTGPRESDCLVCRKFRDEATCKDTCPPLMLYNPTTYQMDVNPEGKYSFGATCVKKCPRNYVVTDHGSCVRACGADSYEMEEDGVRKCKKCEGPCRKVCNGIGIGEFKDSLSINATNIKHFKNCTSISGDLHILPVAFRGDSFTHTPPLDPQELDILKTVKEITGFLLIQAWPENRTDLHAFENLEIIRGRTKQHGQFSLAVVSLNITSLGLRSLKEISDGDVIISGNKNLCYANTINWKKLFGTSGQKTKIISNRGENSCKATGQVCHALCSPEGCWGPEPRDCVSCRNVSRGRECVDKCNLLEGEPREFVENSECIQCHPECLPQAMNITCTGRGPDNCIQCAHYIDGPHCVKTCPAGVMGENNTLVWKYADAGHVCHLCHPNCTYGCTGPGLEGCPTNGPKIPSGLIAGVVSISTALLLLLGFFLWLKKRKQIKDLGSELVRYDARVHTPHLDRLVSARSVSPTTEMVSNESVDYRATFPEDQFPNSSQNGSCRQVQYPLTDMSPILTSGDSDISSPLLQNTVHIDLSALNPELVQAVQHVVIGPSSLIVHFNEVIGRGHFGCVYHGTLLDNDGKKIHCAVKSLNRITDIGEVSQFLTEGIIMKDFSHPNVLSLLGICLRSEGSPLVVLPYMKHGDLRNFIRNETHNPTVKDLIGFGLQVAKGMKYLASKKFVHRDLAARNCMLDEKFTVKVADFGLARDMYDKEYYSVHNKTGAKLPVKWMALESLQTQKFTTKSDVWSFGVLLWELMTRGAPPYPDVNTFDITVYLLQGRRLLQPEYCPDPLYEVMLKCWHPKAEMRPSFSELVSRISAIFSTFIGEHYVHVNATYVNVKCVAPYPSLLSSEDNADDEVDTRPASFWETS

| SMILES | Met Kinase % Inhibition (P.130) |
| --- | --- |
| Cc1c(Br)cc(Br)c2c1C(=Cc1cc(O)cc(O)c1)C(=O)N2 [10738/H07] | 77.2% |
| Cc1c(Br)cc(Br)c2c1C(=Cc1ccc(Cl)c(Cl)c1)C(=O)N2 [10738/H08] | 20.7% |
| COc1ccccc1C=C1C(=O)Nc2c(Br)cc(Br)c(C)c21 [10738/H09] | 52.3% |
| Cc1c(Br)cc(Br)c2c1C(=Cc1ccc(C(C)C)cc1)C(=O)N2 [10738/H10] | 27.7% |
| CCCOc1ccc(C=C2C(=O)Nc3c(Br)cc(Br)c(C)c32)cc1 [10738/H11] | 24.9% |
| COc1ccc(C=C2C(=O)Nc3c(Br)cc(Br)cc32)cc1C [10739/A02] | 41.8% |
| O=C1Nc2c(Br)cc(Br)cc2C1=Cc1cccc(OCc2ccccc2)c1 [10739/A03] | 37.4% |
| O=C1Nc2c(Br)cc(Br)cc2C1=Cc1ccc(OCc2ccccc2)cc1 [10739/A04] | 45.2% |
| O=C1Nc2c(Br)cc(Br)cc2C1=CC1COc2ccccc2O1 (stereo not shown) [10739/A05] | 36.5% |
| O=C1Nc2c(Br)cc(Br)cc2C1=Cc1ccc(O)cc1Cl [10739/A06] | 70.1% |
| O=C1Nc2c(Br)cc(Br)cc2C1=Cc1cc(O)c(O)c(O)c1 [10739/A07] | 99.9% |
| COc1ccc(Oc2cccc(C=C3C(=O)Nc4c(Br)cc(Br)cc43)c2)cc1 [10739/A08] | 39.9% |
| CN(C)CCCOc1ccc(C=C2C(=O)Nc3c(Br)cc(Br)cc32)cc1 [10739/A09] | 60.4% |
| O=C1Nc2c(Br)cc(Br)cc2C1=Cc1ccoc1 [10739/A10] | 81.2% |
| O=C1Nc2c(Br)cc(Br)cc2C1=Cc1ccc(CO)o1 [10739/A11] | 82.8% |
| COc1ccc(C=C2C(=O)Nc3ccc(I)cc32)cc1C [10739/B02] | 68.1% |
| O=C1Nc2ccc(I)cc2C1=Cc1cccc(OCc2ccccc2)c1 [10739/B03] | 62.4% |
| O=C1Nc2ccc(I)cc2C1=Cc1ccc(OCc2ccccc2)cc1 [10739/B04] | 65.1% |
| O=C1Nc2ccc(I)cc2C1=CC1COc2ccccc2O1 (stereo not shown) [10739/B05] | 74.0% |
| O=C1Nc2ccc(I)cc2C1=Cc1ccc(O)cc1Cl [10739/B06] | 68.1% |
| O=C1Nc2ccc(I)cc2C1=Cc1cc(O)c(O)c(O)c1 [10739/B07] | 98.7% |
| COc1ccc(Oc2cccc(C=C3C(=O)Nc4ccc(I)cc43)c2)cc1 [10739/B08] | 65.8% |
| CN(C)CCCOc1ccc(C=C2C(=O)Nc3ccc(I)cc32)cc1 [10739/B09] | 63.5% |
| O=C1Nc2ccc(I)cc2C1=Cc1ccoc1 [10739/B10] | 70.6% |

| SMILES | Met Kinase % Inhibition (P.130) |
| --- | --- |
| O=C1Nc2ccc(I)cc2C1=Cc1ccc(CO)o1 [10739/B11] | 84.9% |
| COc1ccc(C=C2C(=O)Nc3ccc(Br)c(C)c32)cc1C [10739/C02] | 34.7% |
| Cc1c(Br)ccc2c1C(=Cc1cccc(OCc3ccccc3)c1)C(=O)N2 [10739/C03] | 10.9% |
| Cc1c(Br)ccc2c1C(=Cc1ccc(OCc3ccccc3)cc1)C(=O)N2 [10739/C04] | −3.6% |
| Cc1c(Br)ccc2c1C(=CC1COc3ccccc3O1)C(=O)N2 (stereo not shown) [10739/C05] | 34.7% |
| Cc1c(Br)ccc2c1C(=Cc1ccc(O)cc1Cl)C(=O)N2 [10739/C06] | 56.1% |
| Cc1c(Br)ccc2c1C(=Cc1cc(O)c(O)c(O)c1)C(=O)N2 [10739/C07] | 93.0% |
| COc1ccc(Oc2cccc(C=C3C(=O)Nc4ccc(Br)c(C)c43)c2)cc1 [10739/C08] | 9.1% |
| Cc1c(Br)ccc2c1C(=Cc1ccc(OCCCN(C)C)cc1)C(=O)N2 [10739/C09] | 76.3% |
| Cc1c(Br)ccc2c1C(=Cc1ccoc1)C(=O)N2 [10739/C10] | 66.3% |
| Cc1c(Br)ccc2c1C(=Cc1ccc(CO)o1)C(=O)N2 [10739/C11] | 61.0% |
| CNS(=O)(=O)c1ccc2c(c1)C(=Cc1ccc(OC)c(C)c1)C(=O)N2 [10739/D02] | 29.0% |
| CNS(=O)(=O)c1ccc2c(c1)C(=Cc1cccc(OCc3ccccc3)c1)C(=O)N2 [10739/D03] | 15.9% |
| CNS(=O)(=O)c1ccc2c(c1)C(=Cc1ccc(OCc3ccccc3)cc1)C(=O)N2 [10739/D04] | 11.1% |
| CNS(=O)(=O)c1ccc2c(c1)C(=CC1COc3ccccc3O1)C(=O)N2 (stereo not shown) [10739/D05] | 30.0% |
| CNS(=O)(=O)c1ccc2c(c1)C(=Cc1ccc(O)cc1Cl)C(=O)N2 [10739/D06] | 59.2% |
| CNS(=O)(=O)c1ccc2c(c1)C(=Cc1cc(O)c(O)c(O)c1)C(=O)N2 [10739/D07] | 86.0% |
| CNS(=O)(=O)c1ccc2c(c1)C(=Cc1cccc(Oc3ccc(OC)cc3)c1)C(=O)N2 [10739/D08] | 5.2% |
| CNS(=O)(=O)c1ccc2c(c1)C(=Cc1ccc(OCCCN(C)C)cc1)C(=O)N2 [10739/D09] | 66.7% |
| COc1ccc(C=C2C(=O)Nc3ccc(S(=O)(=O)Nc4ccc(C(F)(F)F)cc4)cc32)cc1C [10739/E02] | 30.0% |
| O=C1Nc2ccc(S(=O)(=O)Nc3ccc(C(F)(F)F)cc3)cc2C1=Cc1cccc(OCc2ccccc2)c1 [10739/E03] | −3.4% |
| O=C1Nc2ccc(S(=O)(=O)Nc3ccc(C(F)(F)F)cc3)cc2C1=Cc1ccc(OCc2ccccc2)cc1 [10739/E04] | −15.2% |
| O=C1Nc2ccc(S(=O)(=O)Nc3ccc(C(F)(F)F)cc3)cc2C1=CC1COc2ccccc2O1 (stereo not shown) [10739/E05] | 8.9% |
| O=C1Nc2ccc(S(=O)(=O)Nc3ccc(C(F)(F)F)cc3)cc2C1=Cc1ccc(O)cc1Cl [10739/E06] | 66.3% |

| SMILES | Met Kinase % Inhibition (P.130) |
| --- | --- |
| O=C1Nc2ccc(S(=O)(=O)Nc3ccc(C(F)(F)F)cc3)cc2C1=Cc1cc(O)c(O)c(O)c1 [10739/E07] | 94.0% |
| COc1ccc(Oc2cccc(C=C3C(=O)Nc4ccc(S(=O)(=O)Nc5ccc(C(F)(F)F)cc5)cc43)c2)cc1 [10739/E08] | 16.1% |
| CN(C)CCCOc1ccc(C=C2C(=O)Nc3ccc(S(=O)(=O)Nc4ccc(C(F)(F)F)cc4)cc32)cc1 [10739/E09] | 33.8% |
| O=C1Nc2ccc(S(=O)(=O)Nc3ccc(C(F)(F)F)cc3)cc2C1=Cc1ccoc1 [10739/E10] | 71.9% |
| O=C1Nc2ccc(S(=O)(=O)Nc3ccc(C(F)(F)F)cc3)cc2C1=Cc1ccc(CO)o1 [10739/E11] | 76.9% |
| COc1ccc(C=C2C(=O)Nc3ccc(S(=O)(=O)N4CCOCC4)cc32)cc1C [10739/F02] | 50.8% |
| O=C1Nc2ccc(S(=O)(=O)N3CCOCC3)cc2C1=Cc1cccc(OCc2ccccc2)c1 [10739/F03] | 38.8% |
| O=C1Nc2ccc(S(=O)(=O)N3CCOCC3)cc2C1=Cc1ccc(OCc2ccccc2)cc1 [10739/F04] | 30.4% |
| O=C1Nc2ccc(S(=O)(=O)N3CCOCC3)cc2C1=CC1COc2ccccc2O1 (stereo not shown) [10739/F05] | −5.4% |
| O=C1Nc2ccc(S(=O)(=O)N3CCOCC3)cc2C1=Cc1ccc(O)cc1Cl [10739/F06] | 56.3% |
| O=C1Nc2ccc(S(=O)(=O)N3CCOCC3)cc2C1=Cc1cc(O)c(O)c(O)c1 [10739/F07] | 100.5% |
| COc1ccc(Oc2cccc(C=C3C(=O)Nc4ccc(S(=O)(=O)N5CCOCC5)cc43)c2)cc1 [10739/F08] | 13.4% |
| CN(C)CCCOc1ccc(C=C2C(=O)Nc3ccc(S(=O)(=O)N4CCOCC4)cc32)cc1 [10739/F09] | −7.0% |
| O=C1Nc2ccc(S(=O)(=O)N3CCOCC3)cc2C1=Cc1ccoc1 [10739/F10] | 40.4% |
| O=C1Nc2ccc(S(=O)(=O)N3CCOCC3)cc2C1=Cc1ccc(CO)o1 [10739/F11] | 40.9% |
| COc1ccc(C=C2C(=O)Nc3ccc(CCCl)cc32)cc1C [10739/G02] | 12.9. % |
| O=C1Nc2ccc(CCCl)cc2C1=Cc1cccc(OCc2ccccc2)c1 [10739/G03] | 9.3% |
| O=C1Nc2ccc(CCCl)cc2C1=Cc1ccc(OCc2ccccc2)cc1 [10739/G04] | 4.1% |
| O=C1Nc2ccc(CCCl)cc2C1=CC1COc2ccccc2O1 (stereo not shown) [10739/G05] | 27.7% |
| O=C1Nc2ccc(CCCl)cc2C1=Cc1ccc(O)cc1Cl [10739/G06] | 27.7% |
| O=C1Nc2ccc(CCCl)cc2C1=Cc1cc(O)c(O)c(O)c1 [10739/G07] | 92.6% |
| COc1ccc(Oc2cccc(C=C3C(=O)Nc4ccc(CCCl)cc43)c2)cc1 [10739/G08] | 20.9% |
